Our source for the IC50 values is patent publication US20160151406A1, “COMBINATION CANCER THERAPY WITH C-MET INHIBITORS AND SYNTHETIC OLIGONUCLEOTIDES” (Mirna Therapeutics, Inc., priority 2014, published 2016).

The structures appear in SMILES notation. Read-outs that look alike come from different tables or passages of the source.

Common to all, as to type: cell-based
One experiment relates to C3A HCC cells. Description: Single-agent cell proliferation (AlamarBlue), C3A. The conditions noted are these: Homo sapiens, 72 h, drug alone, proliferation 3 days post drug treatment. On the procedure:
(§1) Cell culture: HCC cells were maintained in EMEM medium with 10% fetal bovine serum, except Huh7 were maintained in DMEM. All cells were maintained at 37° C. in a humidified of 95% air and 5% CO2.
(§2) miR-Rx34 and tivantinib and EMD1214063 treatment: To determine the IC50 value of each drug alone, 2,000 cells per well were seeded in a 96-well plate format and treated with either tivantinib or miR-Rx34 as follows. (i) miR-Rx34 was reverse-transfected in triplicates in a serial dilution (0.03-30 nM) using RNAiMax lipofectamine. As controls, cells were also transfected with RNAiMax alone (mock). Cells were incubated with AlamarBlue (Invitrogen) 6 days post transfection to determine cellular proliferation. Proliferation data were normalized to mock-transfected cells. (ii) Tivantinib or EMD1214063, prepared as a 10 mM stock solution in dimethyl sulfoxide (DMSO), was added to cells 3 days after seeding at a final concentration ranging from 0.1 to 100 μM for tivantinib and 0.01 and 10 μM for EMD1214063. Solvent alone (1% final DMSO) was added to cells in separate wells as a control. Three days thereafter, cellular proliferation was measured by AlamarBlue and normalized to the solvent control.
(§3) Statistical analysis: Statistical analysis was done using the Excel (Microsoft) and Graphpad software. Averages and standard deviations were calculated from triplicate experiments. […]

Another experiment deals with SK-Hep1 HCC cells. Description: Single-agent cell proliferation (AlamarBlue), SK-Hep1. The conditions noted are these: Homo sapiens, 72 h, drug alone, proliferation 3 days post drug treatment, read-out: EMD1214063 IC50. On the procedure: as §1, §2, §3
The test system of the next experiment is Hep3b HCC cells. Description: Single-agent cell proliferation (AlamarBlue), Hep3b. The conditions noted are these: Homo sapiens, 72 h, drug alone, proliferation 3 days post drug treatment, read-out: Tivantinib IC50. On the procedure: as §1, §2, §3
The next experiment deals with HepG2 HCC cells. Description: Single-agent cell proliferation (AlamarBlue), HepG2. To be noted: Homo sapiens, 72 h, drug alone, proliferation 3 days post drug treatment, read-out: Tivantinib IC50. The procedure: as §1, §2, §3
For the next experiment, the system named is Huh7 HCC cells. Description: Single-agent cell proliferation (AlamarBlue), Huh7. The conditions noted are these: Homo sapiens, Huh-7, 72 h, drug alone, proliferation 3 days post drug treatment, read-out: Tivantinib IC50. The procedure: as §1, §2, §3

In the case of `CN1CCC(COc2cnc(-c3cccc(Cn4nc(-c5cccc(C#N)c5)ccc4=O)c3)nc2)CC1` [EMD1214063, 3-(1-(3-(5-((1-methylpiperidin-4-yl)methoxy)pyrimidin-2-yl)benzyl)-1,6-dihydro-6-oxopyridazin-3-yl)benzonitrile], the IC50 in the experiment on C3A HCC cells (read-out: EMD1214063 IC50) stood at 7 µM; in the experiment on SK-Hep1 HCC cells, 6.7 µM.
Take `O=C1NC(=O)[C@@H](c2cn3c4c(cccc24)CCC3)[C@@H]1c1c[nH]c2ccccc12` [Tivantinib, (3R,4R)-3-(5,6-Dihydro-4H-pyrrolo[3,2,1-ij]quinolin-1-yl)-4-(1H-indol-3-yl)-2,5-pyrrolidinedione]: the IC50 in the experiment on Hep3b HCC cells was in the range of 4.63 to 18.6 µM; in the experiment with HepG2 HCC cells, 8.99 to 25 µM; with C3A HCC cells (read-out: Tivantinib IC50), 2.3 to 7.42 µM; in the experiment with Huh7 HCC cells, 1.5 to 3.32 µM.
